This is an account of results in patent publication US9546179B2, “Heterocycle amido alkyloxy substituted quinazoline derivative and use thereof” (priority 2011, dated 2017).

Bounds are passed on as bounds.

One may read the IC50 as the concentration that gives 50% inhibition. High values mean weaker potency, low ones greater potency. For orientation: GI50 means the concentration at which growth is held to half of that of the control.

The target of test [1] is T1, receptor tyrosine kinase EGFR (Homo sapiens, UniProt P00533).
T1 construct: purchased Shanghai 3bio Technology Co., Ltd. Lot No. 4018780925
As to the kind of experiment: Inhibitory effect on receptor tyrosine kinase EGFR (ELISA, Poly(Glu, Tyr)4:1, PY99 antibody). The note with it: ATP 4 μM, 1 hour at 37° C. It counts as biochemical. Here is the method:
Poly(Glu, Tyr)4:1 was diluted into 100 μg/ml by PBS without potassium. Enzyme label plate was coated with 37 μl/well at 37° C. overnight,
The liquid in the wells was removed. The plate was rinsed by T-PBS for 5 minutes, and dried at 37° C. after repeated 3 times.
The testing sample was diluted to the concentration concerned by reaction buffer solution, and added into the wells of the coated enzyme label plate. The concentration diluted should realize 1.0000 μg/ml, 0.1250 μg/ml, 0.0156 μg/ml, 0.00195 μg/ml and 0.00024 μg/ml in the 100 μl reaction.
Adding in ATP solution (4 μM of final concentration) diluted by reaction buffer solution,
Finally, the tyrosine kinase diluted by reaction buffer solution was added, and forming the reaction with 100 μl total volume.
Meanwhile, negative control wells and enzyme-free control wells were prepared. The reaction was kept in the dark wet box for 1 hour at 37° C. The plate was rinsed by T-PBS for three times after the reaction ended, and blocked by 1% BSA […] for 30 min, and then, PY99 antibody (1:1000 diluted by 0.05% PBST with 1% BSA) was added in 100 μl/well. After incubated at 37° C. for 30 minutes, the plate was rinsed by T-PBS for three times, and the goat anti-mouse IgG marked with HRP (1 mg/ml 1:1000 diluted by 0.05% PBST with 1% BSA) was then added in 100 μl/well. After incubated at 37° C. for 30 minutes, the plate was rinsed by T-PBS for three times.
Colorimetric solution OPD was added in 100 μl/well for 20 minutes' reaction in the dark side at the room temperature. Colorimetric substrate solution OPD was the solution of 0.1 mol/L citric acid-disodium hydrogen phosphate buffer (pH 5.0) with 20 mmol/L OPD and 12 mmol/L H2O2 (freshly prepared when using).
50 μl of 2M H2SO4 (2 mol/L sulfuric acid containing 0.1 mol/L sodium sulfate) was added in to terminate the reaction, and the A492 value was read with adjustable wavelength micro late enzyme-labeling instrument VERSAmax.
The inhibition rate of samples is calculated by the following formula: […]
(In general: ELISA stands for enzyme-linked immunosorbent assay.)

Test [2] relates to Human lung cancer cells (A549). As to the kind of experiment: Anticancer effect in vitro on A549 cells (MTT, GI50). Type of test: cell-based. The note with it: A549, 72 hours. The procedure:
The inhibitory effect on the cancer cells of the compounds prepared in Example 1-Example 13, Example 20, Example 48, Example 49 and Example 57 was determined in vitro using cancer cells. The results are shown in table 2, and the specific detection methods are as follows:
Human lung cancer cells were (A549, purchased from Shanghai FuMeng Gene Bio-technology Co., Ltd.) cultured in DMEM containing 2 m M/L-glutamine and 10% FBS, and inoculated in 96-well plate, 200 μL/well and 2000 cells per well; the plate was preincubated for 24 hours under the condition of 5% CO2 and 100% relative humidity at 37° C., allowing for cell adherence.
When the cells adhered, the supernatant was removed, and 200 μL drug-containing culture medium was added with different concentration of compounds into each well (in concentration of 20 μg/ml, 12.5 µg/ml, 6.25 μg/ml, […], 1.5625 μg/ml and 0.78125 μg/ml), 3 multiple wells were set up for each drug concentration as well as blank control (cell culture medium without cells), and drug-free control (with no drugs, filled with complete medium in equal amount only), cultured for 72 hours under the condition of 5% CO2 incubator at 37° C. (100% relative humidity).
After the culture ended, the supernatant was carefully removed, and adding 200 μl DMEM culture medium containing 3% FBS with 500 μg/ml MTT into each well, and culturing for 4 hours under the condition of 5% CO2 incubator at 37° C. (100% relative humidity). After the supernatant was discarded, 150 μL DMSO was added in each well for solving. the GI50 value was measured by detecting the absorbance in the 570 nm wavelength.

T1 sequence (P00533 25-1210): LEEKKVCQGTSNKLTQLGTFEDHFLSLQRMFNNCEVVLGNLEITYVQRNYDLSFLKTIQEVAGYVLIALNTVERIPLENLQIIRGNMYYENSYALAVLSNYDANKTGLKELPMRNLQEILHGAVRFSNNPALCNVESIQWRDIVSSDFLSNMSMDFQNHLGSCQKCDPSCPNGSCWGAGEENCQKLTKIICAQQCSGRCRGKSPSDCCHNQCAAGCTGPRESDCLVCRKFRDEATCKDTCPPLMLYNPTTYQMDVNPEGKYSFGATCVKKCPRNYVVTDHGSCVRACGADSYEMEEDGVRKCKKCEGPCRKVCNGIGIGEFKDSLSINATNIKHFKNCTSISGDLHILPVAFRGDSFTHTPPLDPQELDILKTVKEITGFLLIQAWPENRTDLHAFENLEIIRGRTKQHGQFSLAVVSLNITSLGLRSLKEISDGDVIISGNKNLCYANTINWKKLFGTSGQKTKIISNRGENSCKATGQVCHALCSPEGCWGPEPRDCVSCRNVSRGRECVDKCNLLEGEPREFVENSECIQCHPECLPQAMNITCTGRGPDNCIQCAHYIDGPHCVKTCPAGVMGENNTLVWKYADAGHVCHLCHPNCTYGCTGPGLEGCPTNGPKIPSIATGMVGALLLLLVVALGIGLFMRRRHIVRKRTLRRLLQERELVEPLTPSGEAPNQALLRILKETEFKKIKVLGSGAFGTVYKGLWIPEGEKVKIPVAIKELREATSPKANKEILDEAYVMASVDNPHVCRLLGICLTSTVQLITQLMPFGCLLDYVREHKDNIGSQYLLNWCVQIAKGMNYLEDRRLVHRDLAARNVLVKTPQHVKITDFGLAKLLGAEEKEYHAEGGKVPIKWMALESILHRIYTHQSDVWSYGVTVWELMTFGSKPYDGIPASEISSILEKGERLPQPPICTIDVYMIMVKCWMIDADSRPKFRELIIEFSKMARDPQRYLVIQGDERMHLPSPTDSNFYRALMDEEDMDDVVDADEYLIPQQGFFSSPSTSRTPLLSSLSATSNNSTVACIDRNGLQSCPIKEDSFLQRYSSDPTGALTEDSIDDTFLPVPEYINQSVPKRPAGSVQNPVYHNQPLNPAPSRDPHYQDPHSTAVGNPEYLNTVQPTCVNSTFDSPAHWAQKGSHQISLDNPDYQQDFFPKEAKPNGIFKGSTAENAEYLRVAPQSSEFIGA

In test [1], `COc1cc2ncnc(Nc3ccc(F)c(Cl)c3)c2cc1OCCN1CCC2(CCOCC2)C1` [Example 10, 4-(3′-chloro-4′-fluorophenylamino)-6-[2-(8-oxa-2-azaspiro[4.5]decane-2-yl)-oxethyl]-7-methoxyquinazoline] displayed an IC50 of 10 to 100 nM. In test [2], this molecule gave a concentration for 50% growth inhibition (GI50) of 35200 nM.
Taken in the same sequence, the figures for `COc1cc2ncnc(Nc3ccc(F)c(Cl)c3)c2cc1OCCN1C2CCC1COC2` [Example 13, 4-(3′-chloro-4′-fluorophenylamino)-6-[2-(3-oxa-8-azabicyclo[3.2.1]octane-8-yl)-oxethyl]-7-methoxyquinazoline] were 10 to 100 nM and 28800 nM.
In the same order, the values of `COc1cc2ncnc(Nc3ccc(F)c(Cl)c3)c2cc1OCCN1CCC2(CC1)COC2` [Example 6] are 10 to 100 nM and 20700 nM.
Taken in the same sequence, the figures for `COc1cc2ncnc(Nc3ccc(F)c(Cl)c3)c2cc1OCCCN1CCC2(CCOC2)C1` (centres unmarked) [Example 7, 4-(3′-chloro-4′-fluorophenylamino)-6-[3-(2-oxa-7-azaspiro[4.4]nonane-7-yl)-propoxy]-7-methoxyquinazoline] were 10 to 100 nM and 15100 nM.
Regarding `COc1cc2ncnc(Nc3ccc(F)c(Cl)c3)c2cc1OCCN1CCC2(COC2)C1` [Example 3, 4-(3′-chloro-4′-fluorophenylamino)-6-[2-(2-oxa-6-azaspiro[3.4]octane-6-yl)-oxethyl]-7-methoxyquinazoline], the IC50 in test [1] was in the range of 100 to 1000 nM. Also, growth in test [2] was halved (GI50) at 10200 nM.
In the same order, the values of `COc1cc2ncnc(Nc3ccc(F)c(Cl)c3)c2cc1OCCN1CC2(CNC(=O)C2)C1` [Example 57, 4-(3′-chloro-4′-fluorophenylamino)-6-[2-(2,6-diazaspiro[3.4]octane-7-ketone-2-yl)-oxethyl]-7-m ethoxyquinazoline] are more than 1000 nM and 23800 nM.
As to `C#Cc1cccc(Nc2ncnc3cc(OC)c(OCCCN4CCC5(CCN(C)C5)C4)cc23)c1` (centres unmarked) [Example 68, 4-(3′-ethynylphenylamino)-6-[3-(7-methyl-2,7-diazaspiro[4.4]nonyl)-propoxy]-7-methoxyquinazoline], the IC50 in test [1] lay within 10 to 100 nM.
`COc1cc2ncnc(Nc3ccc(F)c(Cl)c3)c2cc1OCCCN1CCC2(CC1)CNC(=O)C2` [Example 79] yielded an IC50 in test [1] of 0.1 to 10 nM.
Still for that read-out and setting: the same measure for `COc1cc2ncnc(Nc3cc(Cl)ccc3F)c2cc1OCCCN1CC2(CNC(=O)C2)C1` [Example 27]: 10 to 100 nM; for `[2H]C([2H])([2H])Oc1cc2ncnc(Nc3ccc(F)c(Cl)c3)c2cc1OCCCN1CCC2(CC1)CNC(=O)O2` [Example 95, 4-(3′-chloro-4′-fluorophenylamino)-6-[3-(1-oxa-3,8-diazaspiro[4.5]decane-2-ketone-8-yl)-propoxy]-7-deuterated methoxyquinazoline]: 10 to 100 nM; for `COc1cc2ncnc(Nc3ccc(F)c(Cl)c3)c2cc1OCCCN1CCC2(CCC(=O)N2)CC1` [Example 84, 4-(3′-chloro-4′-fluorophenylamino)-6-[3-(1,8-diazaspiro[4.5]decane-2-ketone-8-yl)-propoxy]-7-methoxyquinazoline]: 10 to 100 nM.
In test [1], `COc1cc2ncnc(Nc3cc(Cl)ccc3F)c2cc1OCCCN1CCC2(COC2)C1` [Example 65] gave an IC50 of 10 to 100 nM.
Still for that read-out and setting: the same measure for `COc1cc2ncnc(Nc3ccc(F)c(Cl)c3)c2cc1OCCCN1CCC2(CC1)CCN(C)C2=O` [Example 85]: 10 to 100 nM.
On the same count and under the same terms, the same measure for `COc1cc2ncnc(Nc3ccc(F)c(Cl)c3)c2cc1OCCCN1CCC2(CCN(C(C)=O)C2)C1` (centres unmarked) [Example 92, 4-(3′-chloro-4′-fluorophenylamino)-6-[3-(7-acetyl-2,7-diazaspiro[4.4]-nonane-2-yl)-propoxy]-7-methoxyquinazoline]: 10 to 100 nM.
Still for that read-out and setting: the same measure for `COc1cc2ncnc(Nc3ccc(F)c(Cl)c3)c2cc1OCCN1CC[C@H]2OCC[C@H]21` (relative stereo) [Example 54]: more than 1000 nM; for `COc1cc2ncnc(Nc3ccc(F)c(Cl)c3)c2cc1OCCN1CCC2(CC1)CNC(=O)C2` [Example 63, 4-(3′-chloro-4′-fluorophenylamino)-6-[2-(2,8-diazaspiro[4.5]decane-3-ketone-8-yl)-oxethyl]-7-methoxyquinazoline]: 100 to 1000 nM; for `[2H]C([2H])([2H])Oc1cc2ncnc(Nc3ccc(F)c(Cl)c3)c2cc1OCCCN1CC2(CNC(=O)O2)C1` [Example 97, 4-(3′-chloro-4′-fluorophenylamino)-6-[3-(5-oxa-2,7-diazaspiro[3.4]octane-6-ketone-2-yl)-propoxy]-7-deuterated methoxyquinazoline]: 100 to 1000 nM.
In the case of `C#Cc1cccc(Nc2ncnc3cc(OC)c(OCCCN4CCC5(COC5)C4)cc23)c1` [Example 75, 4-(3′-ethynylphenylamino)-6-[3-(2-oxa-6-azaspiro[3.4]octane-6-yl)-propoxy]-7-methoxyquinazoline], the IC50 in test [1] fell in the range of 10 to 100 nM.
Same read-out and setting: the same measure for `COc1cc2ncnc(Nc3cc(Cl)ccc3F)c2cc1OCCCN1C2CCC1COC2` [Example 16, 4-(5′-chloro-2′-fluorophenylamino)-6-[3-(3-oxa-8-azabicyclo[3.2.1]octane-8-yl)-propoxy]-7-methoxyquinazolin]: 10 to 100 nM; for `C#Cc1cccc(Nc2ncnc3cc(OC)c(OCCCN4CC5(CNC(=O)C5)C4)cc23)c1` [Example 45, 4-(3′-ethynylphenylamino)-6-[3-(2,6-diazaspiro[3.4]octane-7-ketone-2-yl)-propoxy]-7-methoxyquinazoline]: 10 to 100 nM; for `COc1cc2ncnc(Nc3ccc(F)c(Cl)c3)c2cc1OCCN1CC2(C1)CN(C)C(=O)O2` [Example 61, 4-(3′-chloro-4′-fluorophenylamino)-6-[2-(7-methyl-5-oxa-2,7-diazaspiro[3.4]octane-6-ketone-2-yl)-oxethyl]-7-methoxyquinazoline]: 10 to 100 nM.
Still for that read-out and setting: the same measure for `COc1cc2ncnc(Nc3ccc(F)c(Cl)c3)c2cc1OCCN1CCC2(C1)CN(C)C(=O)O2` (centres unmarked) [Example 59, 4-(3′-chloro-4′-fluorophenylamino)-6-[2-(3-methyl-1-oxa-3,7-diazaspiro[4.4]nonane-2-ketone-7-yl)-oxethyl]-7-methoxyquinazoline]: 10 to 100 nM.
Molecule `[2H]C([2H])([2H])Oc1cc2ncnc(Nc3ccc(F)c(Cl)c3)c2cc1OCCCN1CCC2(C1)CN(C)C(=O)O2` (centres unmarked) [Example 96, 4-(3′-chloro-4′-fluorophenylamino)-6-[3-(3-methyl-1-oxa-3,7-diazaspiro[4.4]nonane-2-ketone-7-yl)-propoxy]-7-deuterated methoxyquinazoline] came in with an IC50 in test [1] of 10 to 100 nM.
Same read-out and setting: the same measure for `COc1cc2ncnc(Nc3ccc(F)c(Cl)c3)c2cc1OCCCN1CCC2(CCCN(C(=O)OC(C)(C)C)C2)C1` (centres unmarked) [Example 77, 4-(3′-chloro-4′-4-fluorophenylamino)-6-[3-(7-tertbutyloxycarbonyl-2,7-diazaspiro[4.5]decane-2-yl)-propoxy]-7-methoxyquinazoline]: more than 1000 nM; for `COc1cc2ncnc(Nc3ccc(F)c(Cl)c3)c2cc1OCCCN1CCC2(CCNC2=O)C1` (centres unmarked) [Example 80, 4-(3′-chloro-4′-fluorophenylamino)-6-[3-(2,7-diazaspiro[4.4]-nonane-1-ketone-7-yl)-propoxy]-7-methoxyquinazoline]: 0.1 to 10 nM; for `COc1cc2ncnc(Nc3ccc(F)c(Cl)c3)c2cc1OCCCN1CCC2(CC1)CNC(=O)O2` [Example 87, 4-(3′-chloro-4′-fluorophenylamino)-6-[3-(1-oxa-3,8-diazaspiro[4.5]decane-2-ketone-8-yl)-propoxy]-7-methoxyquinazoline]: 10 to 100 nM.
